The NIST ThermoML archive (doi:10.1021/acs.jced.8b01204)
± gives the expanded uncertainty stated by the source.

Experiment: xn = mol fraction of the nth substance listed
Conditions: 101 kPa, Liquid; for speed of sound: Single path-length method; for mass density: Vibrating tube method

C[N+]1(CC2CO2)CCCC1=O.O=C([O-])c1ccccc1O (stereo not given) [1-methyl-1-(oxiran-2-ylmethyl)-2-oxopyrrolidinium salicylate] + CC(=O)O
Conditions | mass density, 293.15 K [kg/m3] | mass density, 298.15 K [kg/m3] | mass density, 303.15 K [kg/m3] | mass density, 308.15 K [kg/m3] | mass density, 313.15 K [kg/m3] | speed of sound, 293.15 K [m/s] | speed of sound, 298.15 K [m/s] | speed of sound, 303.15 K [m/s] | speed of sound, 308.15 K [m/s] | speed of sound, 313.15 K [m/s]
x1 = 0.0301 | 1080.9 ± 3 | 1075.6 ± 3 | 1070.3 ± 3 | 1065 ± 3 | 1059.7 ± 3 | 1250 ± 6.1 | 1232.7 ± 6.1 | 1215.5 ± 6.1 | 1198.6 ± 6.1 | 1181.8 ± 6.1
x1 = 0.0701 | 1103.7 ± 3 | 1098.6 ± 3 | 1093.5 ± 3 | 1088.4 ± 3 | 1083.3 ± 3 | 1310.7 ± 6.1 | 1294 ± 6.1 | 1277.3 ± 6.1 | 1260.7 ± 6.1 | 1244.4 ± 6.1
x1 = 0.1001 | 1117.2 ± 3 | 1112.3 ± 3 | 1107.3 ± 3 | 1102.4 ± 3 | 1097.4 ± 3 | 1349.7 ± 6.1 | 1333.2 ± 6.1 | 1316.5 ± 6.1 | 1300.1 ± 6.1 | 1283.9 ± 6.1
x1 = 0.2001 | 1147.6 ± 3 | 1143 ± 3 | 1138.3 ± 3 | 1133.6 ± 3 | 1128.8 ± 3 | 1441 ± 6.1 | 1424.6 ± 6.1 | 1408.1 ± 6.1 | 1391.8 ± 6.1 | 1375.7 ± 6.2
x1 = 0.3003 | 1166.3 ± 3 | 1161.7 ± 3 | 1157.2 ± 3 | 1152.7 ± 3 | 1148.9 ± 3 | 1496.7 ± 6.1 | 1480.2 ± 6.2 | 1463.7 ± 6.2 | 1447.5 ± 6.2 | 1431 ± 6.2
x1 = 0.4013 | 1178.7 ± 3.1 | 1174.2 ± 3.1 | 1169.7 ± 3.1 | 1165.5 ± 3.1 | 1161 ± 3.1 | 1535 ± 6.2 | 1515.8 ± 6.2 | 1497.4 ± 6.2 | 1480.2 ± 6.2 | 1463.1 ± 6.2
x1 = 0.5017 | 1187.3 ± 3.1 | 1183 ± 3.1 | 1178.7 ± 3.1 | 1174.5 ± 3.1 | 1170.1 ± 3.1 | 1561.4 ± 6.2 | 1541.8 ± 6.2 | 1523.2 ± 6.2 | 1504.9 ± 6.2 | 1488.8 ± 6.2
x1 = 0.6002 | 1193.9 ± 3.1 | 1189.6 ± 3.1 | 1185.4 ± 3.1 | 1181.3 ± 3.1 | 1177 ± 3.1 | 1582.2 ± 6.2 | 1562.5 ± 6.2 | 1542.9 ± 6.2 | 1528.5 ± 6.2 | 1515.4 ± 6.2
x1 = 0.7019 | 1199.1 ± 3.1 | 1194.9 ± 3.1 | 1190.7 ± 3.1 | 1186.7 ± 3.1 | 1182.5 ± 3.1 | 1600 ± 6.2 | 1582 ± 6.2 | 1565.2 ± 6.2 | 1548.8 ± 6.2 | 1532.6 ± 6.2
x1 = 0.8024 | 1203.6 ± 3.2 | 1199.3 ± 3.1 | 1195.1 ± 3.1 | 1191 ± 3.1 | 1186.7 ± 3.1 | 1617.3 ± 6.3 | 1600 ± 6.3 | 1583 ± 6.3 | 1566.5 ± 6.3 | 1550.4 ± 6.3
x1 = 0.901 | 1207 ± 3.2 | 1202.7 ± 3.2 | 1198.6 ± 3.2 | 1194.5 ± 3.2 | 1190.2 ± 3.2 | 1626.8 ± 6.3 | 1609.2 ± 6.3 | 1592.2 ± 6.3 | 1575.7 ± 6.3 | 1559.5 ± 6.3
x1 = 1 | 1209.8 ± 3.2 | 1205.5 ± 3.2 | 1201.3 ± 3.2 | 1197.2 ± 3.2 | 1193 ± 3.2 | 1634.2 ± 6.3 | 1614.5 ± 6.3 | 1595.7 ± 6.3 | 1577.6 ± 6.3 | 1559.5 ± 6.3
